Results: patent US20020086278A1, “CHROMOGENIC MEDIA CONTAINING BLOOD OR HEMIN” (priority 1999, published 2002)
Where two headings read alike, the source gives them in different places.

Key:
[1] = tested on: Streptococcus pneumoniae 6303; test: Example 1: growth and colony color on plates surface-spread with chromogen; type: cell-based; conditions: TSA Plain; S. pneu: 6303
[2] = tested on: Citrobacter freundii (cifr); test: Example 3: colony color on chromogenic TSA II with 5% sheep blood (chromogen in medium); type: cell-based; conditions: for Colony Color: CO2
[3] = tested on: Branhamella catarrhalis 25238; test: Example 1: growth and colony color on plates surface-spread with chromogen; type: cell-based; conditions: TSA Plain; B. catt 25258
[4] = tested on: Gardnerella vaginalis 14019; test: as above; type: cell-based; conditions: Substrate on Choclate II Agar; G. vag. 14019
[5] = tested on: milu 9341; test: Example 3: colony color on chromogenic TSA II with 5% sheep blood (chromogen in medium); type: cell-based
[6] = tested on: Streptococcus agalactiae (stag); test: as above; type: cell-based
[7] = tested on: Candida albicans (caal); test: as above; type: cell-based; conditions: for Colony Color: caal 10231
[8] = tested on: S pyogenes (stpy); test: as above; type: cell-based; conditions: for Colony Color on Various Chromogenic TSA II with 5% Sheep Blood: 18 h
[9] = tested on: Staphylococcus aureus (stau); test: as above; type: cell-based
[10] = Precipitate of chromogen on pre-plated media; type: physicochemical; conditions: After 1 week
Method: 50 μl of each chromogen solution was added to the surface of each of the following pre-plated media (one chromogen solution per plate):
The solution was dispersed using a spreader and allowed to dry 3-4 hours in a hood.

[11] = tested on: Klebsiella pneumoniae (klpn); test: Example 3: colony color on chromogenic TSA II with 5% sheep blood (chromogen in medium); type: cell-based; conditions: for Colony Color: CO2
[12] = tested on: E. faecium (enfu); test: as above; type: cell-based
[13] = tested on: E. coli (non-O157) (esco); type: cell-based
[14] = tested on: Serratia marcescens (sema); test: Example 3: colony color on chromogenic TSA II with 5% sheep blood (chromogen in medium); type: cell-based; conditions: for Colony Color: sema 13880, CO2
[15] = tested on: S. pneumoniae (stpn); test: as above; type: cell-based; conditions: for Colony Color on Various Chromogenic TSA II with 5% Sheep Blood: 18 h
[16] = tested on: Branhamella catarrhalis (brca); test: as above; type: cell-based; conditions: for Colony Color: CO2
[17] = tested on: Staphylococcus Coag Neg (step); test: as above; type: cell-based; conditions: for Colony Color on Various Chromogenic TSA II with 5% Sheep Blood: 18 h; for Colony Color: 21 h
[18] = tested on: Pseudomonas aeruginosa (psae); test: as above; type: cell-based; conditions: CO2
[19] = tested on: Escherichia coli 25922; test: Example 1: growth and colony color on plates surface-spread with chromogen; type: cell-based; conditions: TSA II 5SB; E. coli 25922
[20] = tested on: cakr 34135; test: Example 3: colony color on chromogenic TSA II with 5% sheep blood (chromogen in medium); type: cell-based
[21] = tested on: S. agalactiae 12386; test: Example 2: effect of incubation conditions on colony color formation; type: cell-based, Streptococcus agalactiae; conditions: 0.004 g/plate, 24 h, CO2
[22] = tested on: Salmonella spp. (sasp); type: cell-based; conditions: for Colony Color: CO2
[23] = chromogenic TSA II with 5% Sheep Blood, 0.1 g/l, 2 strains tested
[24] = chromogenic TSA II with 5% Sheep Blood, 0.1 g/l, 3 strains tested
[25] = chromogenic TSA II with 5% Sheep Blood, 0.1 g/l, 5 strains tested
[26] = chromogenic TSA II with 5% Sheep Blood, 0.1 g/l, 1 strain tested

SMILES: OC[C@H]1O[C@@H](Oc2c[nH]c3ccc(Br)c(Cl)c23)[C@H](O)[C@@H](O)[C@@H]1O [X-Glucoside, 5-Br-4-Cl-3-indolyl-β-D-glucopyranoside]
- Growth [1]: <
- Colony Color (Summary) [2, 23]: 0
- Colony Color ([2]; cifr 8454, 18 h): 0
- Colony Color ([2]; cifr 8454, 21 h): 0
- Colony Color ([2]; cifr 33128, 18 h): 0
- Colony Color ([2]; cifr 33128, 21 h): 0
- Growth [3]: <
- Growth [4]: <
- Colony Color ([5]; CO2, 18 h): ly
- Colony Color ([5]; CO2, 21 h): 0
- Colony hemolytic activity ([6]; Group B Strep on X-glucoside TSA II): slightly reduced
- Colony Color ([6]; Group B Strep, 3 of 3 strains, X-glucoside TSA II): blue
- Colony Color (Summary) [6, 24]: +
- CAMP test ([6]; on X-glucoside TSA II): works well
- Colony Color ([6]; stag 4768, air, 21 h): lb
- Colony Color ([7]; CO2, 18 h): 0
- Colony Color ([7]; CO2, 24 h): 0
- Colony Color ([7]; air, 24 h): 0
- Colony Color (Summary) [7, 23]: 0
- Colony Color ([8]; 4 of 7 S. pyogenes, X-glucoside TSA II): light grey blue
- Colony Color ([8]; stpy 1027, CO2, 21 h): 0
- Colony Color ([8]; stpy 1028, CO2, 21 h): lgb
- Colony Color ([8]; stpy 1029, CO2, 21 h): lgb
- Colony Color ([8]; stpy 1030, CO2, 21 h): gb
- Colony Color ([8]; stpy 19615, CO2, 21 h): gb
- Colony Color ([8]; stpy 19615, air, 21 h): lgb
- Colony Color ([8]; stpy 49117, CO2, 21 h): 0
- Colony Color ([8]; stpy 49117, air, 21 h): 0
- Colony Color on Various Chromogenic TSA II with 5% Sheep Blood ([8]; stpy 51339, CO2): 0
- Colony Color ([8]; stpy 51339, CO2, 21 h): 0
- Colony Color ([8]; stpy 51339, air, 21 h): lgb
- Colony Color on Various Chromogenic TSA II with 5% Sheep Blood ([8]; stpy t027, CO2): 0
- Colony Color on Various Chromogenic TSA II with 5% Sheep Blood ([8]; stpy t028, CO2): 0
- Colony Color on Various Chromogenic TSA II with 5% Sheep Blood ([8]; stpy t029, CO2): 0
- Colony Color on Various Chromogenic TSA II with 5% Sheep Blood ([8]; stpy t030, CO2): lgb
- Colony Color (Summary) [9, 25]: 0
- Colony Color ([9]; stau 1006, CO2, 21 h): 0
- Colony Color ([9]; stau 1007, CO2, 21 h): 0
- Colony Color ([9]; stau 1008, CO2, 21 h): 0
- Colony Color ([9]; stau 1009, CO2, 21 h): 0
- Colony Color ([9]; stau 25923, CO2, 18 h): 0
- Colony Color ([9]; stau 25923, CO2, 24 h): 0
- Colony Color ([9]; stau 25923, air, 24 h): 0
- Colony Color on Various Chromogenic TSA II with 5% Sheep Blood ([9]; stau t006, CO2, 18 h): 0
- Colony Color on Various Chromogenic TSA II with 5% Sheep Blood ([9]; stau t007, CO2, 18 h): 0
- Colony Color on Various Chromogenic TSA II with 5% Sheep Blood ([9]; stau t008, CO2, 18 h): 0
- Colony Color on Various Chromogenic TSA II with 5% Sheep Blood ([9]; stau t009, CO2, 18 h): 0
- Precipitate on plates after 1 week [10]: some precipitate was evident
- Colony Color (Summary) [11, 24]: +
- Colony Color ([11]; klpn 13883, 21 h): gb
- Colony Color ([11]; klpn 33495, 18 h): gb
- Colony Color ([11]; klpn 33606, 18 h): gb
- Colony Color ([11]; klpn 33606, 21 h): gb
- Colony Color (Summary) [12, 26]: +
- Colony Color ([12]; enfu 49032, CO2, 18 h): db
- Colony Color (Summary) [13, 24]: 0
- Colony Color ([13]; esco 11775, CO2, 18 h): 0
- Colony Color ([13]; esco 11775, CO2, 21 h): 0
- Colony Color ([13]; esco 25922, CO2, 24 h): 0
- Colony Color ([13]; esco 25922, air, 24 h): 0
- Colony Color ([13]; esco 33605, CO2, 18 h): 0
- Colony Color ([13]; esco 33605, CO2, 21 h): 0
- Colony Color (Summary) [14, 26]: +
- Colony Color ([14]; 18 h): bg
- Colony Color ([14]; 21 h): gb
- Colony Color ([15]; stpn 1259, CO2, 21 h): 0
- Colony Color ([15]; stpn 1260, CO2, 21 h): 0
- Colony Color ([15]; stpn 1628, CO2, 21 h): 0
- Colony Color ([15]; stpn 6303, CO2, 24 h): 0
- Colony Color ([15]; stpn 6303, air, 24 h): 0
- Colony Color ([15]; stpn 6305, CO2, 24 h): 0
- Colony Color ([15]; stpn 6305, air, 24 h): 0
- Colony Color on Various Chromogenic TSA II with 5% Sheep Blood ([15]; stpn t259, CO2): 0
- Colony Color on Various Chromogenic TSA II with 5% Sheep Blood ([15]; stpn t260, CO2): 0
- Colony Color on Various Chromogenic TSA II with 5% Sheep Blood ([15]; stpn t331, CO2): 0
- Colony Color on Various Chromogenic TSA II with 5% Sheep Blood ([15]; stpn t628, CO2): bg
- Colony Color ([16]; brca 25238, 18 h): 0
- Colony Color ([16]; brca 25238, 21 h): 0
- Colony Color ([16]; brca 25240, 18 h): 0
- Colony Color ([16]; brca 25240, 21 h): 0
- Colony Color (Summary) [16, 23]: 0
- Colony Color (Summary) [17, 25]: 0
- Colony Color on Various Chromogenic TSA II with 5% Sheep Blood ([17]; step 12228, CO2): 0
- Colony Color ([17]; step 12228, CO2): 0
- Colony Color ([17]; step 12228, air): 0
- Colony Color on Various Chromogenic TSA II with 5% Sheep Blood ([17]; step cdc1, CO2): 0
- Colony Color ([17]; step cdc1, CO2): 0
- Colony Color ([17]; step cdc1, air): 0
- Colony Color ([17]; step cdc2, CO2): 0
- Colony Color ([17]; step cdc2, air): 0
- Colony Color ([17]; step cdc3, CO2): 0
- Colony Color ([17]; step cdc3, air): 0
- Colony Color on Various Chromogenic TSA II with 5% Sheep Blood ([17]; step cdc4, CO2): 0
- Colony Color ([17]; step cdc4, CO2): 0
- Colony Color ([17]; step cdc4, air): 0
- Colony Color on Various Chromogenic TSA II with 5% Sheep Blood ([17]; stha cdc2, CO2): 0
- Colony Color on Various Chromogenic TSA II with 5% Sheep Blood ([17]; stsa cdc3, CO2): 0
- Colony Color ([18]; psae 9027, 18 h): 0
- Colony Color ([18]; psae 9027, 21 h): 0
- Colony Color ([18]; psae 15442, 18 h): 0
- Colony Color ([18]; psae 15442, 21 h): 0
- Colony Color ([18]; psae 33607, 18 h): 0
- Colony Color ([18]; psae 33607, 21 h): lgb
- Growth [19]: 4
- Colony Color ([20]; CO2, 18 h): 0
- Colony Color ([20]; CO2, 21 h): 0
- Colony Color ([21]; Chocolate II Agar): blue (d)
- Colony Color ([21]; TSA II 5% Sheep Blood): blue (d)
- Colony Color (Summary) [22, 23]: 0
- Colony Color ([22]; saty 19430, 18 h): 0
- Colony Color ([22]; saty 19430, 21 h): 0
- Colony Color ([22]; satym 14028, 18 h): 0
- Colony Color ([22]; satym 14028, 21 h): 0
